# Source: PubChem BioAssay (NCI)
# “And” between values parts separate entries of the source, which are not always exact repeats. Equal values may be shown once.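 Method: 48-hour compound exposure of cells in 96-well plates, five concentrations, linear interpolation of endpoints. At the GI50, growth is halved. At the TGI there is no net growth.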
# Columns and labels:
# Test in all cases: inhibition of tumour cell growth, NCI panel, 48 h
# [1] = test system: OVCAR-8 ovarian
# [2] = test system: UACC-257 melanoma
# [3] = test system: HT29 colon
# [4] = test system: HCC-2998 colon
# [5] = test system: SF-268 CNS
# [6] = test system: SK-MEL-28 melanoma
# [7] = test system: HOP-62 NSCLC
# [8] = test system: SF-539 CNS
# [9] = test system: M14 melanoma
# [10] = test system: MALME-3M melanoma
SMILES,GI50 [1],TGI [1],GI50 [2],TGI [2],GI50 [3],TGI [3],GI50 [4],TGI [4],GI50 [5],TGI [5],GI50 [6],TGI [6],GI50 [7],TGI [7],GI50 [8],TGI [8],GI50 [9],TGI [9],GI50 [10],TGI [10]
CCCCOC(=O)c1c(C)[nH]c(/C=C2\N=C(c3ccc[nH]3)C=C2OC)c1C,0.216 µM,13.8 µM,0.488 µM,3.35 µM,0.041 µM,1.72 µM,0.138 µM,2.06 µM,0.242 µM,9.07 µM,0.509 µM,2.8 µM,0.416 µM,8.04 µM,0.245 µM,2 µM,0.171 µM,2.01 µM,1.16 µM,2.82 µM
N#C/C(=C\c1ccc[nH]1)C(=O)c1ccccc1,–,> 100 µM,–,> 100 µM,–,> 100 µM,–,> 100 µM,–,> 100 µM,–,> 100 µM,–,> 100 µM,–,> 100 µM,–,> 100 µM,–,> 100 µM
CCc1ccccc1NC(=O)C(=O)C1C(=O)N(c2ccccc2)N=C1N (stereo not drawn),–,> 100 µM,–,> 100 µM,–,> 100 µM,–,> 100 µM,–,> 100 µM,–,> 100 µM,–,> 100 µM,–,> 100 µM,–,> 100 µM,–,> 100 µM
Fc1ccc(Nc2nc3nonc3nc2Nc2ccc(I)cc2)cc1,0.312 µM,12.8 µM,0.207 µM,0.756 µM,0.303 µM,10.3 µM,0.425 µM,9.24 µM,0.367 µM,17.9 µM,0.34 µM,4.63 µM,0.344 µM,1.92 µM,0.275 µM,2.58 µM,0.289 µM,2.86 µM,0.0939 µM,0.511 µM
Cc1ccccc1-n1c(CCl)nc2ccc(Br)cc2c1=O,–,27.1 µM,–,32.2 µM,–,16.7 µM,–,30.8 µM,–,10.8 µM,–,32.5 µM,–,56 µM,–,21.8 µM,–,22.8 µM,–,32.9 µM
NC1(C(=O)N[C@@H](CCO)c2ccc(Cl)cc2)CCN(c2ncnc3[nH]ccc23)CC1,> 4.3 µM and 42.5 µM,> 100 µM,3.8 µM and 7.39 µM,> 100 µM,2.5 µM and 5.26 µM,> 100 µM,> 2.1 µM and 8.17 µM,> 100 µM,> 2.26 µM and 32.2 µM,> 100 µM,1.69 µM and 7.47 µM,> 100 µM,3.69 µM and 4.89 µM,> 100 µM,0.223 µM and 0.417 µM,2.42 µM and 13.2 µM,> 2.68 µM and 9.15 µM,> 81.4 µM,0.977 µM and 2.38 µM,> 3.54 µM and 18.7 µM
CC(=O)ON=C1C=CC(=C(C#N)c2ccccc2)C=C1,2.07 µM,15 µM,2.32 µM,18.3 µM,3.03 µM,12.9 µM,11.7 µM,32.2 µM,1.21 µM,6.33 µM,8.77 µM,61.4 µM,1.63 µM,9.16 µM,0.671 µM,11.2 µM,1.89 µM,9.9 µM,4.01 µM,20.1 µM
CN(C)CCCCNc1ccc(NCCCCN(C)C)c2c1C(=O)c1c(O)ccc(O)c1C2=O,1.55 µM,2.94 µM,18.4 µM,32.3 µM,1.19 µM,2.86 µM,1.58 µM,2.93 µM,10.4 µM,22.1 µM,17.8 µM,31.7 µM,1.7 µM,3.13 µM,10.9 µM,24.6 µM,1.81 µM,3.2 µM,18.3 µM,33.5 µM
O=C(CN1CCN(C(=O)c2ccco2)CC1)Nc1ccc(Cl)cc1C(=O)c1ccccc1Cl,11.5 µM,53.8 µM,12.5 µM,31.8 µM,6.23 µM,22.3 µM,14.8 µM,29.4 µM,14.7 µM,43.1 µM,11.6 µM,23.9 µM,16.9 µM,35.6 µM,13.6 µM,26.9 µM,12.5 µM,28.1 µM,7 µM,22.2 µM
CC1C(O)=C(O)c2ccccc2N1O (stereo not drawn),–,> 100 µM,–,> 100 µM,–,> 100 µM,–,> 100 µM,–,> 100 µM,–,> 100 µM,–,> 100 µM,–,> 100 µM,–,> 100 µM,–,> 100 µM
Cc1cc(C)nc(NS(=O)(=O)c2ccc(NC(=O)COC(=O)c3cccc4c(=O)c5ccccc5[nH]c34)cc2)n1,–,> 100 µM,–,65.1 µM,–,> 100 µM,–,37.9 µM,–,> 100 µM,–,> 100 µM,–,47.4 µM,–,34 µM,–,> 100 µM,–,73 µM
CO/C(=C1/NC(=O)C(Cc2ccc(O)c(Br)c2)N(C)C(=O)C(C)NC(=O)CCC/C=C(\C)CCC(C)OC1=O)c1ccccc1 (stereo not drawn),0.0437 µM,6.41 µM,0.029 µM,0.15 µM,< 0.0135 µM,–,< 0.0154 µM,0.311 µM,0.0267 µM,0.0767 µM,< 0.0134 µM,0.0419 µM,0.0369 µM,1.18 µM,0.0281 µM,0.783 µM,< 0.0205 µM,–,0.0319 µM,0.123 µM
c1ccc(CC(Nc2cccnc2)c2ccccc2)cc1 (stereo not drawn),–,> 100 µM,–,49.8 µM,–,32.6 µM,–,39.9 µM,–,> 100 µM,–,> 100 µM,–,60.1 µM,–,40.5 µM,–,37.9 µM,–,72.4 µM
CC1=CC[C@@H](C(C)(C)O)C[C@@H]1O,–,> 5000 µM,–,> 5000 µM,–,> 5000 µM,–,> 5000 µM,–,> 5000 µM,–,> 5000 µM,–,> 5000 µM,–,> 5000 µM,–,> 5000 µM,–,> 5000 µM
CC1=C(C(=O)Nc2ccc(C)cc2)C(c2cccc([N+](=O)[O-])c2)C(C(=O)Nc2ccc(C)cc2)=C(C)N1,–,> 100 µM,–,56.7 µM,–,49.4 µM,–,> 100 µM,–,52.2 µM,–,> 100 µM,–,89.4 µM,–,36.9 µM,–,49.2 µM,–,77.2 µM
CC[As](CC)SCC1OC(OC(C)=O)C(OC(C)=O)C(OC(C)=O)C1OC(C)=O (stereo not drawn),–,31.9 µM,–,28.6 µM,–,54 µM,–,31.7 µM,–,25.8 µM,–,15.7 µM,–,38.3 µM,–,27.4 µM,–,24.7 µM,–,10.3 µM
